# Measured values reported in patent US5843925A, “Methods for inhibiting angiogenesis, proliferation of endothelial or tumor cells and tumor growth” (American Cyanamid Company, priority 1994, dated 1998).
# Counter-ions that a name gives are not always drawn.
# Tests used:
# [1] = test system: A2780/DDP; assay: Antiproliferative activity in human tumor cell lines (A2780/DDP); assay type: cell-based; settings: A2780/DDP ovarian tumor cell line
# Method: (§1) PROTOCOLS 1, 2, and 3 are described in greater detail hereinbelow. In general, according to PROTOCOLS 1 and 2, the target ABAE and/or Human Tumor cells are exposed to the compound of Formula I for 48 hours. PROTOCOL 3 exposes ABAE cells to the compounds for 4 days. A detailed description of the protocol is as follows:
# (§2) The antiproliferative activity of the compounds of Formula I of the present invention is evaluated in a panel comprised of human tumor cell lines and an adult bovine aortic endothelial cell line (ABAE). The human tumor cell lines are from
# (§3) Cultures are renewed after 20 passages with cells from a fresh stock of batch-frozen early passage cells. Cell lines are routinely checked for mycoplasma contamination (Genprobe). In a laminar flow hood, cells (1-5×10^4) are plated into 96-well microtiter plates in a volume of 0.1 ml/well with a bulk microtiter dispenser (Denley). […] Compounds are added using a Tomtec dispenser which simultaneously dispenses from one 96-well plate, containing the drug dilutions, to the plates containing the cells. After two days of continuous drug exposure, 50% cold trichloroacetic acid (TCA) is added to 10% final concentration to fix the cells, and after 60 minutes at 4° C., the TCA is aspirated and the plates are washed 5 times with deionized water using a microtiter plate washer. […] A 0.4% solution of the dye, sulforhodamine B, in […] is added to the plates, and the plates are washed 5 times with 1% glacial acetic acid using the automatic plate washed. The bound stain is solubilized with 0.1 ml of 10 mM Tris base. The optical densities are read from an automatic spectrophotometric plate reader (Dynatech) directly to a main frame computer (VAX 8600).
# (§4) Positive controls, that include standard chemotherapeutic drugs (i.e., adriamycin, cisplatin, etc.), are included in every experiment.
# (§5) Background optical density measurements (complete media-cells, and complete media+drug-cells) are automatically subtracted from the appropriate control and test wells. Mean values and standard errors are determined from duplicate wells. A measure is also made of the optical density at time when the drugs are added. The number of cells after treatment (P), as % of control, is calculated for every concentration of drug, as follows: [formula] wherein: T is optical density measurement for treated cells after 48 hours;
# (§6) C is optical density measurement for untreated cells after 48 hours;
# (§7) Co is optical density measurement for cells at the time of drug addition.
# (§8) IC50 of growth inhibition is calculated from the sets of P values using the RS-1 data package (BBN Software).
# (§9) Antiproliferative Activity in Human Tumor Cell Lines
# (§10) The antiproliferative activity of the compounds of Formula I is evaluated in the panel comprised of human tumor cell lines as listed in PROTOCOL 1. This assay is a slight modification of PROTOCOL 1. The modifications include:
# (§11) 1) each concentration for each compound is tested in a single well;
# (§12) 2) compounds are tested at 20, 4, 0.8, 0.16 microgram/ml and additionally in some experiments at 100 and 0.32 microgram/ml;
# (§13) 3) samples are pipetted into a 96-well plate for each of the cell lines by a Beckman Biomek 1000 SL robot;
# (§14) 4) after fixing with TCA each well is washed with 0.35 ml distilled water twice, not five times;
# (§15) 5) after staining with sulforhodamine B each well is washed 3 times, not five times;
# (§16) 6) the growth inhibition (I) as % of control, is calculated using the RS-1 data package (BBN Software), for every concentration of drug, as follows: [formula] wherein: T is optical density measurement for treated cells after 48 hours;
# (§17) 7) IC50 of growth inhibition is determined graphically from dose response curves, as is known in the art.
# [2] = test system: SW620; assay: Antiproliferative activity in human tumor cell lines (SW620); assay type: cell-based; settings: SW-620, SW620 colon tumor cell line
# Method: as §1, §2
# (§18) All cell lines are maintained in log phase in RPMI 1640 media, supplemented with 5% fetal calf serum, penicillin/streptomycin and 2 mM L-glutamine. Cultures are renewed after 20 passages with cells from a fresh stock of batch-frozen early passage cells. Cell lines are routinely checked for mycoplasma contamination (Genprobe). In a laminar flow hood, cells (1-5×10^4) are plated into 96-well microtiter plates in a volume of 0.1 ml/well with a bulk microtiter dispenser (Denley). […] At this concentration, dimethylsulfoxide has no effect on cell growth. Compounds are added using a Tomtec dispenser which simultaneously dispenses from one 96-well plate, containing the drug dilutions, to the plates containing the cells. After two days of continuous drug exposure, 50% cold trichloroacetic acid (TCA) is added to 10% final concentration to fix the cells, and after 60 minutes at 4° C., the TCA is aspirated and the plates are washed 5 times with deionized water using a microtiter plate washer. The number of cells on the plate are quantitated using a protein dye-binding assay (Monks et al., 1991). A 0.4% solution of the dye, sulforhodamine B, in glacial acetic acid is added to the plates, and the plates are washed 5 times with 1% glacial acetic acid using the automatic plate washed. The bound stain is solubilized with 0.1 ml of 10 mM Tris base. The optical densities are read from an automatic spectrophotometric plate reader (Dynatech) directly to a main frame computer (VAX 8600).
# as §4, §5, §6, §7, §8, §9, §10, §11, §12, §13, §14, §15
# (§19) 6) the growth inhibition (I) as % of control, is calculated using the RS-1 data package (BBN Software), for every concentration of drug, as follows: [formula] wherein: T is optical density measurement for treated cells after 48 hours; […]
# [3] = test system: CACO2; assay: Antiproliferative activity in human tumor cell lines (CACO2); assay type: cell-based; settings: Caco-2, CACO2 colon tumor cell line
# Method: as §1, §2, §18, §4, §5, §6, §7, §8, §9, §10, §11, §12, §13, §14, §15, §19
# [4] = test system: MIP; assay: Antiproliferative activity in human tumor cell lines (MIP); assay type: cell-based; settings: MIP colon tumor cell line
# Method: as §1, §2, §18, §4, §5, §6, §7, §8, §9, §10, §11, §12, §13, §14, §15, §19
# [5] = test system: Human Tumor cell lines; assay: Antiproliferative activity in panel of human tumor cell lines (PROTOCOL 1 and PROTOCOL 2); assay type: cell-based; settings: for IC50: Homo sapiens, average over the tumor cell lines of Table 3
# Method: (§20) The antiproliferative activity of the compounds of Formula I in an Adult Bovine Aortic Endothelial (ABAE) cell line and in Human Tumor cells lines is evaluated in three similar assays that measure growth inhibition. The assays are identified as follows:
# as §1, §2, §18, §4, §5, §6, §7, §8, §9, §10, §11, §12, §13, §14
# 5) after staining with sulforhodamine B each well is washed 3 times, not five times; […]
# [6] = test system: HTB 161; assay: Antiproliferative activity in human tumor cell lines (HTB 161); assay type: cell-based
# Method: as §1, §2, §3, §4, §5, §6, §7, §8, §9, §10, §11, §12, §13, §14, §15, §16, §17
# [7] = test system: A2780S; assay: Antiproliferative activity in human tumor cell lines (A2780S); assay type: cell-based; settings: A2780S ovarian tumor cell line
# Method: as §1, §2, §3, §4, §5, §6, §7, §8, §9, §10, §11, §12, §13, §14, §15, §16, §17
# [8] = test system: Adult Bovine Aortic Endothelial (ABAE) cell line; assay: Antiproliferative activity in Adult Bovine Aortic Endothelial (ABAE) cell line, PROTOCOL 3; assay type: cell-based; settings: 4 day assay (Protocol 3)
# Method: as §20, §1
# Antiproliferative Activity in Adult Bovine Aortic Endothelial (ABAE) Cell Line
# ABAE cells are grown in DMEM media (Mediatech Washington, D.C.) supplemented with 10% calf serum (Hyclone). ABAE cells are plated in 24-well dishes at 8,000 cells/well, followed by the addition of increasing concentrations of 7-[substituted amino]-9-[(substituted glycyl)amido]-6-demethyl-6-deoxytetra-cyclines. After four days, the cells are detached and counted. […] The growth inhibition (I) as % of control is calculated as follows: [formula] wherein: Nc is the number of cells in untreated wells;
# Nt is the number of cells in treated wells;
# No is the number of plated cells.
# IC50 of growth inhibition is determined from the sets of I values plotted by Kaleidograph software (Abelbeck Software).
# Table 2 presents the results depicting the antiproliferative activity of the compounds of Formula I against an adult bovine aortic endothelial cell line (ABAE), as evaluated by PROTOCOL 1 and PROTOCOL 3. The results are presented in terms of IC50 and are as follows.
# [9] = test system: angiogenesis; settings: Cancer Research 51, 672-675, Brem et al; cited from earlier work
# [10] = highest concentration, human tumor cell lines
SMILES,IC50 [1] [µg/mL],IC50 [2] [µg/mL],IC50 [3] [µg/mL],IC50 [4] [µg/mL],IC50 [5] [µg/mL],IC50 [6] [µg/mL],IC50 [7] [µg/mL],"cell growth at highest concentration [5, 10]","dead floating cells [5, 10]","inhibition of cell growth ([5]; highest concentrations, 6 human tumor cell lines, FIG. 2)",activity upon incubation with cells [8],inhibition of angiogenesis vs combination therapy of heparin and cortisone [9]
"CCCCN(CC1CC1)c1cc(NC(=O)CN(C)C)c(O)c2c1CC1CC3C(N(C)C)C(O)=C(C(N)=O)C(=O)C3(O)C(O)=C1C2=O (stereo not drawn) [Example 7, 7-[Butyl(cyclopropylmethyl)amino]-4-(dimethylamino)-9 [[(dimethylamino)acetyl]amino]-1,4,4a,5,5a,6,-11,12a-octahydro-3,10,12,12a-tetrahydroxy-1,11-dioxo-2-naphthacenecarboxamide sulfate (1:2)]",3,3.5,10,8,5.1,3,3,–,–,–,–,–
"CC(C)CN(CC(C)C)c1cc(NC(=O)CN(C)C)c(O)c2c1CC1CC3[C@H](N(C)C)C(O)=C(C(N)=O)C(=O)[C@@]3(O)C(O)=C1C2=O (stereo partly drawn) [Example 8, [4S-(4α,12aα)]-7-[Bis(2-methylpropyl)amino]-4-(dimethylamino)9-[[(dimethylamino)acetyl]amino]-1,4,4a,5,5a,6,11,12a-octahydro-3,10,12,12a-tetrahydroxy-1,11-dioxo-2-naphthacenecarboxamide sulfate]",1.5,1.5,6,10,4,2.5,2.5,the cells continue to grow,Dead floating cells were not observed,no 100% inhibition of cell growth,–,–
"CN(C)c1cc(NC(=O)CN2CCCC2)c(O)c2c1CC1CC3[C@H](N(C)C)C(O)=C(C(N)=O)C(=O)[C@@]3(O)C(O)=C1C2=O (stereo partly drawn) [Example 3, [7S-(7α,10aα)]-N-[9-(Aminocarbonyl)-4,7-bis(dimethylamino)-5,5a,6,6a,7,10,10a,12-octahydro-1,8-10a,11-tetrahydroxy-10,12-dioxo-2-naphthacenyl]-1-pyrrolidineacetamide dihydrochloride]",2.7,2.3,–,2.45,2.4,2.3,2.4,–,–,–,–,–
"CN(C)c1ccc(O)c2c1C[C@H]1C[C@H]3[C@H](N(C)C)C(O)=C(C(N)=O)C(=O)[C@@]3(O)C(O)=C1C2=O [Minocycline, reference compound]",–,–,9,–,–,–,–,–,–,–,losing its activity upon incubation with cells,inhibits angiogenesis to an extent comparable to that of the combination therapy of heparin and cortisone
"CCCN(CCC)c1cc(NC(=O)CN(C)C)c(O)c2c1CC1CC3[C@H](N(C)C)C(O)=C(C(N)=O)C(=O)[C@@]3(O)C(O)=C1C2=O (stereo partly drawn) [Example 6, [4S-(4α,12aα)]-4-(Dimethylamino)-9-[[(dimethylamino)acetyl]amino]-7-(dipropylamino)-1,4,4a,5,5a,6,11,12a-octahydro-3,10,12,12a-tetrahydroxy-1,11-dioxo-2-naphthacenecarboxamide sulfate (1:1)]",3,3,8,10,5.1,3,3.5,–,–,–,–,–
